{"source": "patent US9393193B2", "about": "“Compositions for controlling heartworm infestation” (CEVA SANTA ANIMALE, priority 2010, dated 2016)", "key": {"[1]": {"conditions": "estimated from reports from non recommended use; cited from earlier work"}, "Dirofilaria": {"system": "Dirofilaria", "experiment": "Effective plasma rate of ivermectin established by the applicant", "assay_type": "in vivo", "from_the_text": "Thus, the formulations according to the present invention provide a long term protection, e.g., at least 6 months for the collar, strip collar, or medallion formulation against infections caused by parasites."}, "[2]": {"conditions": "14-week oral, cited from earlier work"}, "Dirofilaria larvae": {"system": "Dirofilaria larvae", "conditions": "cited from earlier work"}, "[3]": {"conditions": "beagle dogs, cited from earlier work"}}, "data": [{"substance": "ivermectin", "values": [{"measurement": "Share of collie dogs highly sensitive to ivermectin", "setting": "[1]", "result": "Approximately 30%"}, {"measurement": "Effective rate of ivermectin in the plasma", "setting": "Dirofilaria", "result": "around 0.1 ng/mL"}, {"measurement": "Severe findings, dogs killed prior to the end of the study", "setting": "[2]; 2.0 mg/kg bw group, four dogs", "result": "tremors, ataxia, anorexia and dehydration"}, {"measurement": "Findings observed", "setting": "[2]; 1.0 and 2.0 mg/kg bw, beagle dogs", "result": "mydriasis and slight weight loss"}, {"measurement": "No Observable Effect Level (NOEL)", "setting": "[2]; beagle dogs", "result": 0.5, "unit": "mg/kg bw"}, {"measurement": "Effective rate of ivermectin in the plasma", "setting": "Dirofilaria larvae; Cunningham C P et al., Am. J. Vet. Res., 2006", "result": "≥ 0.2", "unit": "ng/mL"}, {"measurement": "Effect on one month aged Dirofilaria larvae", "setting": "Dirofilaria larvae; ivermectin per se at 6 mcg/kg", "result": "able to kill efficiency one month aged Dirofilaria larvae"}, {"measurement": "Time course of H2B1a concentration in plasma", "setting": "[3]; oral 0.5 and 2.0 mg/kg bw", "result": "reached steady-state after about three weeks"}, {"measurement": "Average increase in plasma levels on a four-fold increase in the dose", "setting": "[3]; oral 0.5 vs 2.0 mg/kg bw", "result": "eight-fold increase"}]}]}
